Results from PMC7482436, “Optopharmacology reveals a differential contribution of native GABAA receptors to dendritic and somatic inhibition using azogabazine” (Neuropharmacology, 2020).
Like-named read-outs stand apart in the source and are kept apart here.

How the values were obtained:
[1] = test system: cerebellar granule cells; assay: Voltage clamp of GABA-mediated IPSCs in cultured cerebellar granule cells with membrane-delimited UV spot; type: cell-based, Sprague Dawley rats; conditions: for mean IPSC amplitude recovered with UV light / IPSC frequency normalised to 100 μm^2 membrane area: 1 μM azogabazine; for mean IPSC amplitude recovered with UV light: −60 mV, n = 12
[2] = target: T1, α1β2γ2L GABAARs (Mus musculus, UniProt P62812+P63137); assay: Whole-cell patch clamp of GABA currents, recombinant α1β2γ2L GABAARs in HEK293 cells; type: cell-based, murine; conditions: for IC50: 10 μM GABA
T1 construct: expressed in transfected cells; host or cells: HEK293
T1 sequence (P62812 28-455): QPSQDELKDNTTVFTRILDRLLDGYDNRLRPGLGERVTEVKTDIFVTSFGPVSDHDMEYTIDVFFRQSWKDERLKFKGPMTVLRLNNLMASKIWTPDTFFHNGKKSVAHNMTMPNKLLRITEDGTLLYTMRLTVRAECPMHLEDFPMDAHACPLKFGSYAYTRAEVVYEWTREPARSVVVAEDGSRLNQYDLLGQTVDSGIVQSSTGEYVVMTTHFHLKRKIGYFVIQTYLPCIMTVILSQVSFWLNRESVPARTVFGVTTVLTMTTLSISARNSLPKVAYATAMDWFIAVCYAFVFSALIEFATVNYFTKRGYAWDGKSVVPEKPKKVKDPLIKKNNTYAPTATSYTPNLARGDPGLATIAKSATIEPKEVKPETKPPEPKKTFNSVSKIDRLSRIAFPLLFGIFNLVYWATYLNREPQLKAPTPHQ
T1 sequence (P63137 25-512 limits assumed): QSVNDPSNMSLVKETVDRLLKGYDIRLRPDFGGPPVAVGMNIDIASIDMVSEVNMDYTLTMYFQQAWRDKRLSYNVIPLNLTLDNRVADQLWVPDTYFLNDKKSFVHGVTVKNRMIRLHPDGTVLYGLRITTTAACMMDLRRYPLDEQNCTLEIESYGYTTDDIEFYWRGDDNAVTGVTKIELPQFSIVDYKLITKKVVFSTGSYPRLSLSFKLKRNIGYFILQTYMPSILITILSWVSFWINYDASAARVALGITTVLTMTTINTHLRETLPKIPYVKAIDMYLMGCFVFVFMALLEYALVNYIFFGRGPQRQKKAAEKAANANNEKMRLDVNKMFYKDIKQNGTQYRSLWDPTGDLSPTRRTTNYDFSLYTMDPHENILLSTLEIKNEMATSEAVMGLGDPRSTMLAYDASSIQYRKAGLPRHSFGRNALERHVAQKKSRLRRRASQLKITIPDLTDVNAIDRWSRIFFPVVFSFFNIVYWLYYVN
T1 sequence (P22723 39-474 partner): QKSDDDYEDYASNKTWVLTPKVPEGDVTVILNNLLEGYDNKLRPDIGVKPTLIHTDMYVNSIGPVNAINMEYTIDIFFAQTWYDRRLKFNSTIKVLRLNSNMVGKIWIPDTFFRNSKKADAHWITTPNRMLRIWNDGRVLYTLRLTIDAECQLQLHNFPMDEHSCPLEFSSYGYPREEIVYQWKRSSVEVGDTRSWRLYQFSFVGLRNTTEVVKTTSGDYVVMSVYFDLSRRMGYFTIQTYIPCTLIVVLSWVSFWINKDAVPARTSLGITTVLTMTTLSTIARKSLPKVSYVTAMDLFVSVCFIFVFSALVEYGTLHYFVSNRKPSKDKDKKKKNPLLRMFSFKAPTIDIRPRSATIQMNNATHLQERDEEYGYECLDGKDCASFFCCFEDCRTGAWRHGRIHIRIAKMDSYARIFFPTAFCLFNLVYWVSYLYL

[3] = target: T1, α1β2γ2L GABAARs; parameters: method as in Huckvale et al., 2016; conditions: normal ambient daylight; ref Huckvale et al., 2016; cited from earlier work
[4] = test system: cerebellar granule cells; assay: Current clamp of action potential firing in cultured cerebellar granule cells with membrane-delimited UV spot; type: cell-based, Sprague Dawley rats; conditions: 1 μM azogabazine; for inhibition at 1 µM: Rattus norvegicus
Method: Dissociated cerebellar cultures were prepared from cerebellar tissue taken from postnatal day 4 (P4) Sprague Dawley rats. Tissue blocks were incubated in trypsin for 10 min (0.1% w/v), washed in Hanks Balanced Salt Solution (HBSS), and then triturated in DNase (0.05% w/v in 12 mM MgSO4). Cells were plated on poly-L-ornithine coated 22 mm glass coverslips in Basal Medium Eagle (BME) supplemented with 0.5% (w/v) glucose, 5 mg/l insulin, 5 mg/l transferrin, 5 mg/l selenium, 20 u/ml penicillin-G and 20 μg/ml streptomycin, 0.2 mM glutamine, 1.2 mM NaCl, and 5% (v/v) fetal calf serum. The neuronal culture was then allowed to develop for 7–10 days at 37 °C in humidified air with 5% CO2 before used for experiments.
To initiate photo-isomerization of azogabazine, optical light paths were used to convey UV laser (Obis [375 nm], Coherent Inc., Santa Clara, USA) or blue LED light (OptoLED [470 nm], Cairn Research Ltd, Faversham, U.K.) through a variable diaphragm (for setting the illuminated spot-diameter), and finally through a water-immersion objective (Nikon, NIR Apo 40×/0.8w) to the cells. The diaphragm was kept fully open for whole cell light exposure experiments and reduced to generate small spots (~8–12 μm) when exposing soma or proximal dendritic areas. The illuminated spot size and position could be adjusted during experiments. Whereas the blue LED could be operated at high power (8.1 mW) during experiments, the UV laser output was empirically adjusted to 2 mW (4% of maximum operating power) to avoid cell damage, but still sufficient to adequately azogabazine isomerization. To adjust the size and position of the illuminated spot, a 440 nm white LED pilot light and a 515 nm long-pass filter were used before switching to UV or blue light.
IPSCs from cerebellar granule cells were detected post-hoc using WinEDR 3.5.6, and analysed for frequency, amplitude, rise time and weighted decay tau using WinWCP 4.9.6. Action potentials from cerebellar granule cells were recorded under current-clamp and were similarly detected with WinEDR 3.5.6. Data were subjected to statistical analyses (ANOVA, paired and unpaired Student t-tests).
To assess neuronal excitability and GABA inhibition, current clamp recordings were performed from cultured granule cells to monitor action potential generation in the presence of 1 μM azogabazine before and after applying UV light.

[5] = 1H NMR of cis:trans isomer ratio and isomer stability under different light conditions; type: physicochemical
Method: For most of the study azogabazine was kept in darkness to ensure a stock of near-100% trans-isomer. Unless stated otherwise, experiments were performed in near-darkness (under red light) when making azogabazine stocks (1 mM stock solution in DMSO), and when pre-exposing stock solutions to UV or blue light using wavelength specific LEDs. Pre-exposure of azogabazine (stock) to UV or blue light was undertaken by positioning a UV (365 nm) or blue (470 nm) OptoLED (Cairn Research Ltd, Faversham, UK) 2–3 mm above a 500 μl droplet on parafilm and exposing for 2 min at maximum light intensity to ensure attainment of equilibrium between cis and trans isomers. The UV LED was operated at 1.2 A to achieve a light intensity output at the surface of the droplet of 5.3 mW. By comparison, the Blue LED was run at 0.9 A for a light intensity output of 8.1 mW at the surface of the droplet.
To physically assess the photo-conversion efficiency between the cis and trans isomers we determined the proton (^1H)-NMR spectra for azogabazine ([…]) in deuterated DMSO under different light conditions. Initially, azogabazine was retained in complete darkness for >14 days and then stored under similar dark conditions. This drove the cis:trans equilibrium almost completely towards the more thermodynamically stable trans isomer (Fig. 1C). […] By integrating the ^1H NMR spectra, long-term darkness produced ~100% of trans-azogabazine, whereas the UV (365 nm) exposure produced an equilibrium of ~85% cis to 15% trans isomers. […] Thus, switching the wavelength of light produced substantive photoisomerisation of azogabazine.
Fig. 2 Azogabazine isomerization and isomer stability. (A), Stability plot for the cis-isomer for non-dark adapted azogabazine samples exposed to different wavelengths of light: λ 365, 405, 470, 530, 565 nm, and near-infrared (NR), prior to ^1H NMR. […] A long (60 s) period of UV-exposure was needed to reach a maximal equilibrium conversion ratio of ~85 : 15% for cis: trans isomers. […] (B), The stability of a UV exposed and established cis: trans ratio is dependent on subsequent storage conditions. If the UV-exposed sample is subsequently kept in ambient light (blue line), the cis:trans ratio changes over ~ 2–4 h towards ~25% cis: 75% trans remaining stable over 10 days (dashed blue line). By contrast, the UV-exposed sample remained stable (~85% cis: 15% trans) over 24 h if subsequently kept in darkness (red line). However, over 10 days, conversion to a predominant trans-form was evident (dashed red line). Finally, when a sample which had been kept in ambient light (~25% cis: 75% trans) was then placed and stored in darkness, it remained stable over 24 h (green line) but slowly converted again to the trans form over 10 days (dashed green line).
To investigate the dynamic relationship between the two azogabazine isomers, we investigated the effect of azogabazine in solution under conditions that result in three different ratios of trans: cis isomers. These included: a dark-adapted solution (trans 100: cis 0%); one pre-exposed for 60 s to blue light (trans 75: cis 25%); and a third exposed for the same duration to UV light (trans 15: cis 85%). […] All subsequent experiments were performed in near-darkness and within 3 h after the trans: cis ratios were established to ensure the stability of the isomers during experimentation. […] The later provides assurance as to the relative time stability of the cis and trans isoforms of azogabazine.

[6] = UV 365 nm exposure for 60 s, equilibrium
[7] = blue light 470 nm for 60 s, photostationary state

N=c1ccc(-c2ccc(N=Nc3ccccc3)cc2)nn1CCCC(=O)O [azogabazine]
block of GABA-mediated IPSCs ([1]; 1 μM azogabazine (saturating), dark-adapted): rapidly blocked all the GABA-mediated IPSCs | mean IPSC amplitude recovered with UV light ([1]; UV spot directed to soma): −74 ± 16 pA | IPSC frequency normalised to 100 μm^2 membrane area ([1]; UV spot on proximal dendrites): 4.2 ± 0.9 Hz | mean IPSC amplitude recovered with UV light ([1]; UV spot on proximal dendritic zones): −41 ± 7 pA | IPSC frequency normalised to 100 μm^2 membrane area ([1]; UV spot on soma): 1.8 ± 0.3 Hz | block of GABA current ([2]; 1 μM azogabazine co-applied with 10 μM GABA, ambient daylight): near complete block | remaining activity at 1 µM ([2]; HEK293, read-out: GABA current recovery during UV light exposure, % of control GABA current, 1 μM azogabazine (not dark-adapted) + 10 μM GABA, UV light, n = 8): 64 ± 9% | remaining activity at 1 µM ([2]; HEK293, 1 μM azogabazine (not dark-adapted) + 10 μM GABA, blue light, n = 8, read-out: GABA current during blue light exposure, % of control): 6 ± 3% | IC50 ([2]; UV pre-exposed azogabazine (365 PE, ~15% trans)): 104 nM | IC50 ([2]; dark-adapted azogabazine (~100% trans), wild-type): 21.1 nM | inhibitory potency of dark-adapted versus UV pre-exposed azogabazine ([2]; dark-adapted higher than UV pre-exposed): 5 fold | IC50 [3]: 22.6 nM | pIC50 [3]: 7.65 ± 0.14 | spike frequency ([4]; before UV): 8.4 ± 3.3 Hz | burst frequency ([4]; burst firing cells): 1.1 ± 0.3 Hz | individual spikes per burst ([4]; burst firing cells): 11 ± 3 | inhibition at 1 µM ([4]; UV on proximal dendritic zones, normalised to exposed area, read-out: inhibition of individual spike generation after UV isomerization): 50 ± 17% | inhibition at 1 µM ([4]; UV on proximal dendritic zones, read-out: inhibition of spike burst generation after UV isomerization): 60 ± 9% | inhibition at 1 µM ([4]; UV on somatic membrane, normalised to exposed area, read-out: inhibition of individual spike generation after UV isomerization): 18 ± 3% | inhibition at 1 µM ([4]; UV on somatic membrane, read-out: inhibition of spike burst generation after UV isomerization): 25 ± 3% | cis isomer fraction [5, 6]: ~ 85% | trans isomer fraction [5, 6]: 15% | time for UV-established cis:trans ratio to change towards ~25% cis: 75% trans ([5]; UV-exposed sample kept in ambient light): 2 to 4 h | cis isomer fraction [5, 7]: 25% | trans isomer fraction [5, 7]: approximately 75% | trans isomer fraction ([5]; long-term darkness, deuterated DMSO): ~ 100%
